Values joined by “and” are separate entries in the source; they are usually repeats but may differ in a detail not shown here. Equal entries are not always repeated. Where two headings read alike, the source gives them in different places.
Experiments:
Nurr1 [1] = biological target: T1, Nurr1 (Homo sapiens, UniProt P43354); assay: Gal4-Nurr1 hybrid reporter gene assay; type: cell-based; settings: for selectivity index DHODH/Nurr1: IC50(DHODH) / EC50(Nurr1); for EC50 / max. activation (Nurr1): Gal4-Nurr1 hybrid reporter gene assay; for EC50: HEK293T cells, mean ± S.E.M., n ≥ 3; for max. activation (Nurr1): fold activation vs untreated control; for efficacy_NR4A2: supplementary csv, max. activation in %
T1 construct: expressed in transfected cells; host or cells: HEK293T
T1 sequence (P43354 360-595 limits assumed): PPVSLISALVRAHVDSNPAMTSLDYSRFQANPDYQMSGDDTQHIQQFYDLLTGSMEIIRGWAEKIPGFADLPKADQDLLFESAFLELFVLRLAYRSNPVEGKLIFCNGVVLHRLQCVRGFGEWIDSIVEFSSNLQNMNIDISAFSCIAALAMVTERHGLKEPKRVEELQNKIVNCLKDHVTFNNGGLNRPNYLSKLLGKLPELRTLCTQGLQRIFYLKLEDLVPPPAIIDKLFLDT

Nurr1 [2] = biological target: T1, Nurr1; settings: cited from earlier work; for efficacy_NR4A2: supplementary csv
DHODH [3] = biological target: T2, DHODH (Homo sapiens, UniProt Q02127); settings: recombinant human DHODH; cited from earlier work
T2 construct: using an N-terminally truncated recombinant DHODH enzyme as described previously[20]
T2 sequence (Q02127 31-395): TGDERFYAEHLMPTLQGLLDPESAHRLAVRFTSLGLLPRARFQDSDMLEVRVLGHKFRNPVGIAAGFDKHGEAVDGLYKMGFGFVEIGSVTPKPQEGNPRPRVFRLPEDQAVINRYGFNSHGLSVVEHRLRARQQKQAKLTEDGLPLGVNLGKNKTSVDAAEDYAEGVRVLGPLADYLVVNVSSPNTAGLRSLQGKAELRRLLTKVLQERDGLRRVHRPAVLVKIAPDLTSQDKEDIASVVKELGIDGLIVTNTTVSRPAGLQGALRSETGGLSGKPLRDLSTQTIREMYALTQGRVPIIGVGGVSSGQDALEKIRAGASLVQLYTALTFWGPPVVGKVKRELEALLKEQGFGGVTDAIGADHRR

DHODH [4] = biological target: T2, DHODH; assay: DHODH inhibition colorimetric assay on recombinant human protein; type: biochemical
[5] = Gal4-Nurr1 hybrid reporter gene assay
[6] = recombinant human DHODH, colorimetric, mean ± S.E.M., n ≥ 3, read-out: IC50 (DHODH)

Row | selectivity index DHODH/Nurr1 (Nurr1 [1]) | EC50 (Nurr1 [1]) | max. activation (Nurr1) (Nurr1 [1]) | efficacy_NR4A2 (Nurr1 [1]) | IC50 (DHODH [4]; [6]) | IC50 (DHODH [4]; supplementary csv, read-out: IC50_DHODH) | inhibition at 100 µM (DHODH [4]; recombinant human DHODH) | Nurr1 preference/selectivity over DHODH (Nurr1 [1]) | SMILES | EC50 (Nurr1 [2]; [5]) | max. activation (Nurr1) (Nurr1 [2]; [5]) | efficacy_NR4A2 (Nurr1 [2]) | IC50 (DHODH [3])
1 | 3.0 | 1100 ± 100 nM | 2.09 ± 0.08 fold | 209% | 3330 ± 60 nM | 3300 nM |  |  | [2H]C([2H])([2H])Oc1cccc(-c2c(F)c(F)c(NC(=O)c3ccsc3S(N)(=O)=O)c(F)c2F)c1 [compound 13, Sulfamoyl-N-{2,3,5,6-tetrafluoro-3'-(^2H3)methoxy-[1,1'-biphenyl]-4-yl}thiophene-3-carboxamide] |  |  |  | 
2 | 4.4 | 900 ± 100 nM | 1.89 ± 0.06 fold | 189% | 4000 ± 1000 nM |  |  |  | [2H]C([2H])([2H])Oc1cccc(-c2c(F)c(F)c(NC(=O)c3ccsc3S(=O)(=O)NC(C)=O)c(F)c2F)c1 [compound 14, 2-(N-Acetylsulfamoyl)-N-{2,3,5,6-tetrafluoro-3’-(^2H3)methoxy-[1,1'-biphenyl]-4-yl}thiophene-3-carboxamide] |  |  |  | 
3 | ~100 | 1200 ± 100 nM | 2.05 ± 0.08 fold | 205% |  |  | 49 ± 1% |  | [2H]C([2H])([2H])Oc1cccc(-c2c(F)c(F)c(NC(=O)c3ccsc3S(C)(=O)=O)c(F)c2F)c1 [compound 15, 2-(Methylsulfonyl)-N-{2,3,5,6-tetrafluoro-3’-(^2H3)methoxy-[1,1'-biphenyl]-4-yl}thiophene-3-carboxamide] |  |  |  | 
4 | ~25 | 1200 ± 200 nM | 2.17 ± 0.11 fold | 217% |  |  | 76 ± 6% |  | [2H]C([2H])([2H])Oc1cccc(-c2c(F)c(F)c(NC(=O)c3ccsc3S(C)(=N)=O)c(F)c2F)c1 (stereo not drawn) [compound 16, 2-(S-Methylsulfonimidoyl)-N-{2,3,5,6-tetrafluoro-3’-(^2H3)methoxy-[1,1'-biphenyl]-4-yl}thiophene-3-carboxamide] |  |  |  | 
5 | 7 | 100 ± 50 nM | 1.97 ± 0.43 fold | 197% | 700 ± 500 nM |  |  |  | [2H]C([2H])([2H])Oc1cccc(-c2c(F)c(F)c(NC(=O)c3ccsc3-c3c(O)c(=O)c3=O)c(F)c2F)c1 [compound 17, 2-(2-Hydroxy-3,4-dioxocyclobut-1-en-1-yl)-N-{2,3,5,6-tetrafluoro-3’-(^2H3)methoxy-[1,1'-biphenyl]-4-yl}thiophene-3-carboxamide] |  |  |  | 
6 | 13 | 50 ± 10 nM | 1.86 ± 0.11 fold | 186% | 660 ± 80 nM |  |  |  | [2H]C([2H])([2H])Oc1cccc(-c2c(F)c(F)c(NC(=O)c3ccsc3-c3noc(=O)[nH]3)c(F)c2F)c1 [compound 18, 2-(5-Oxo-4,5-dihydro-1,2,4-oxadiazol-3-yl)-N-{2,3,5,6-tetrafluoro-3’-(^2H3)methoxy-[1,1'-biphenyl]-4-yl}thiophene-3-carboxamide] |  |  |  | 
7 | 28 | 21 ± 2 nM | 2.14 ± 0.11 fold | 214% | 600 ± 200 nM |  |  |  | [2H]C([2H])([2H])Oc1cccc(-c2c(F)c(F)c(NC(=O)c3ccsc3-c3nn[nH]n3)c(F)c2F)c1 [compound 19, N-{2,3,5,6-Tetrafluoro-3’-(^2H3)methoxy-[1,1'-biphenyl]-4-yl}-2-(2H-tetrazol-5-yl)thiophene-3-carboxamide] |  |  |  | 
8 | 4.2 | 2600 ± 300 nM | 1.9±0.2 fold | 190% | 11100 ± 600 nM |  |  |  | [2H]C([2H])([2H])Oc1cccc(-c2c(F)c(F)c(NC(=O)c3cscc3-c3nc(=O)on3C)c(F)c2F)c1 [compound 24, 4-(2-Methyl-5-oxo-2,5-dihydro-1,2,4-oxadiazol-3-yl)-N-{2,3,5,6-tetrafluoro-3’-(^2H3)methoxy-[1,1'-biphenyl]-4-yl}thiophene-3-carboxamide] |  |  |  | 
9 | 30 | 39 ± 5 nM | 2.4±0.1 fold | 240% | 1200 ± 200 nM |  |  |  | [2H]C([2H])([2H])Oc1cccc(-c2c(F)c(F)c(NC(=O)c3cscc3C3=NOS(=O)N3)c(F)c2F)c1 (stereo not drawn) [compound 28, 4-(2-Oxido-3H-1,2,3,5-oxathiadiazol-4-yl)-N-{2,3,5,6-tetrafluoro-3’-(^2H3)methoxy-[1,1'-biphenyl]-4-yl}thiophene-3-carboxamide] |  |  |  | 

Continued, compound first:

Row | SMILES | selectivity index DHODH/Nurr1 (Nurr1 [1]) | EC50 (Nurr1 [1]) | max. activation (Nurr1) (Nurr1 [1]) | efficacy_NR4A2 (Nurr1 [1]) | IC50 (DHODH [4]; [6]) | IC50 (DHODH [4]; supplementary csv, read-out: IC50_DHODH) | inhibition at 100 µM (DHODH [4]; recombinant human DHODH) | Nurr1 preference/selectivity over DHODH (Nurr1 [1]) | EC50 (Nurr1 [2]; [5]) | max. activation (Nurr1) (Nurr1 [2]; [5]) | efficacy_NR4A2 (Nurr1 [2]) | IC50 (DHODH [3])
10 | [2H]C([2H])([2H])Oc1cccc(-c2cc(F)c(NC(=O)C3=C(c4noc(=O)[nH]4)CCC3)c(F)c2)c1 [compound 8] | 9 |  |  |  |  |  |  |  | 1000 ± 100 nM | 2.0±0.1 fold | 200% | 9260 nM and 9000 nM
11 | [2H]C([2H])([2H])Oc1cccc(-c2c(F)c(F)c(NC(=O)C3=C(C(=O)O)CCC3)c(F)c2F)c1 [compound 10] |  |  |  |  |  |  |  |  |  | 1.9±0.1 fold | 188% | 
12 | [2H]C([2H])([2H])Oc1cccc(-c2c(F)c(F)c(NC(=O)c3cscc3-c3noc(=O)[nH]3)c(F)c2F)c1 [compound 21, 4-(5-Oxo-4,5-dihydro-1,2,4-oxadiazol-3-yl)-N-{2,3,5,6-tetrafluoro-3’-(^2H3)methoxy-[1,1'-biphenyl]-4-yl}thiophene-3-carboxamide] | 13 | 30 ± 10 nM | 2.2±0.1 fold | 220% | 400 ± 60 nM |  |  |  |  |  |  | 
13 | [2H]C([2H])([2H])Oc1cccc(-c2c(F)c(F)c(NC(=O)c3cscc3-c3nn[nH]n3)c(F)c2F)c1 [compound 22, N-{2,3,5,6-Tetrafluoro-3’-(^2H3)methoxy-[1,1'-biphenyl]-4-yl}-4-(2H-tetrazol-5-yl)thiophene-3-carboxamide] | 3.9 | 11 ± 2 nM | 2.5±0.2 fold | 250% | 43 ± 6 nM |  |  |  |  |  |  | 
14 | [2H]C([2H])([2H])Oc1cccc(-c2c(F)c(F)c(NC(=O)c3cscc3-c3noc(=S)[nH]3)c(F)c2F)c1 [compound 23, N-{2,3,5,6-Tetrafluoro-3’-(^2H3)methoxy-[1,1'-biphenyl]-4-yl}-4-(5-thioxo-4,5-dihydro-1,2,4-oxadiazol-3-yl)thiophene-carboxamide] | 1.7 | 36 ± 3 nM | 1.77±0.04 fold | 177% | 62 ± 4 nM |  |  |  |  |  |  | 
15 | [2H]C([2H])([2H])Oc1cccc(-c2c(F)c(F)c(NC(=O)c3cscc3-c3nc(=S)on3C)c(F)c2F)c1 [compound 25, 4-(2-Methyl-5-thioxo-2,5-dihydro-1,2,4-oxadiazol-3-yl)-N-{2,3,5,6-tetrafluoro-3’-(^2H3)methoxy-[1,1'-biphenyl]-4-yl}thiophene-3-carboxamide] | >100 | 900 ± 100 nM | 2.3±0.2 fold | 230% |  |  | 40 ± 8% |  |  |  |  | 
16 | [2H]C([2H])([2H])Oc1cccc(-c2c(F)c(F)c(NC(=O)c3cscc3-c3n[nH]c(=O)o3)c(F)c2F)c1 [compound 26, 4-(5-Oxo-4,5-dihydro-1,3,4-oxadiazol-2-yl)-N-{2,3,5,6-tetrafluoro-3’-(^2H3)methoxy-[1,1'-biphenyl]-4-yl}thiophene-3-carboxamide] | 5.9 | 17 ± 2 nM | 1.8±0.1 fold | 180% | 100 ± 10 nM |  |  |  |  |  |  | 
17 | [2H]C([2H])([2H])Oc1cccc(-c2c(F)c(F)c(NC(=O)c3cscc3-c3n[nH]c(=S)o3)c(F)c2F)c1 [compound 27, N-(2,3,5,6-Tetrafluoro-3’-(^2H3)methoxy-[1,1'-biphenyl]-4-yl)-4-{5-thioxo-4,5-dihydro-1,3,4-oxadiazol-2-yl}thiophene-3-carboxamide] | 6.0 | 160 ± 50 nM | 1.7±0.1 fold | 170% | 960 ± 90 nM |  |  |  |  |  |  | 
18 | [2H]C([2H])([2H])Oc1cccc(-c2c(F)c(F)c(NC(=O)C3=C(C(=O)O)COC3)c(F)c2F)c1 [compound 29] |  |  | 2.5±0.1 fold | 250% |  |  |  |  |  |  |  | 
19 | [2H]C([2H])([2H])Oc1cccc(-c2c(F)c(F)c(NC(=O)C3=C(c4nn[nH]n4)COC3)c(F)c2F)c1 [compound 30, N-{2,3,5,6-Tetrafluoro-3’-(^2H3)methoxy-[1,1'-biphenyl]-4-yl}-4-(2H-tetrazol-5-yl)-2,5-dihydrofuran-3-carboxamide] | 13.6 | 220 nM | 2.0±0.2 fold | 200% | 3000 ± 1000 nM |  |  | 14 fold |  |  |  | 
20 | [2H]C([2H])([2H])Oc1cccc(-c2c(F)c(F)c(NC(=O)c3ccccc3-c3nn[nH]n3)c(F)c2F)c1 [compound 31, N-{2,3,5,6-Tetrafluoro-3’-(^2H3)methoxy-[1,1'-biphenyl]-4-yl}-2-(2H-tetrazol-5-yl)benzamide] | 1.9 | 140 ± 10 nM | 1.9±0.1 fold | 190% | 260 ± 40 nM |  |  |  |  |  |  | 

— PMC7617969, “Carboxylic Acid Bioisosteres Boost Nurr1 Agonist Selectivity” (Journal of medicinal chemistry, 2025)
